Assay results published in ChEMBL document CHEMBL1142644, “Antineoplastic agents 440. Asymmetric synthesis and evaluation of the combretastatin A-1 SAR probes (1S,2S)- and (1R,2R)-1, 2-dihydroxy- 1-(2',3'-dihydroxy-4'-methoxyphenyl)-2-(3' ',4' ',5' '-trimethoxyphenyl)-ethane” (J Nat Prod, 2000).
In brackets after ≈: the same amount, converted by molar mass. Each block holds one compound with its values, some of them ahead of it. Activity calls are given as the source filed them. The rule behind the calls is not given here.

Experiments:
P388 = assay: Cytotoxicity against mouse P388 cells; assay type: functional; conditions: read-out: ED50 (the source's name)
FaDu = assay: Cytotoxicity against human FaDu cells; assay type: functional
L1210 = assay: Cytotoxicity against mouse L1210 cells; assay type: functional; conditions: read-out: ED50 (the source's name)
Neisseria gonorrhoeae [1] = assay: Antibacterial activity against Neisseria gonorrhoeae by disk susceptibility test; assay type: functional
Streptococcus pneumoniae [2] = assay: Antibacterial activity against Streptococcus pneumoniae by disk susceptibility test; assay type: functional
[3] = Inhibition of bovine tubulin polymerization; set-up: species or system Bos taurus
Neisseria gonorrhoeae [4] = assay: Antibacterial activity against Neisseria gonorrhoeae at 100 ug/disk by disk susceptibility test
Staphylococcus aureus [5] = assay: Antibacterial activity against Staphylococcus aureus at 100 ug/disk by disk susceptibility test
Enterococcus faecalis = assay: Antibacterial activity against Enterococcus faecalis at 100 ug/disk by disk susceptibility test
Candida albicans [6] = assay: Antifungal activity against Candida albicans at 100 ug/disk by disk susceptibility test
Escherichia coli = assay: Antibacterial activity against Escherichia coli at 100 ug/disk by disk susceptibility test
Cryptococcus neoformans [7] = assay: Antifungal activity against Cryptococcus neoformans at 100 ug/disk by disk susceptibility test
Micrococcus luteus = assay: Antibacterial activity against Micrococcus luteus at 100 ug/disk by disk susceptibility test
Enterobacter cloacae = assay: Antibacterial activity against Enterobacter cloacae at 100 ug/disk by disk susceptibility test
[8] = tested on: Stenotrophomonas maltophilia; assay: Antibacterial activity against Stenotrophomonas maltophilia at 100 ug/disk by disk susceptibility test
Streptococcus pneumoniae [9] = assay: Antibacterial activity against Streptococcus pneumoniae at 100 ug/disk by disk susceptibility test
Cryptococcus neoformans [10] = assay: Antifungal activity against Cryptococcus neoformans by disk susceptibility test; assay type: functional
Candida albicans [11] = assay: Antifungal activity against Candida albicans by disk susceptibility test; assay type: functional
[12] = tested on: Stenotrophomonas maltophilia; assay: Antibacterial activity against Stenotrophomonas maltophilia by disk susceptibility test; assay type: functional
Staphylococcus aureus [13] = assay: Antibacterial activity against Staphylococcus aureus by disk susceptibility test; assay type: functional
Bos taurus [14] = organism: Bos taurus; assay: Displacement of [3H]colchicine from bovine tubulin at inhibitor to colchicine ratio of 0.2:1; set-up: scale not given: the % may be the effect or the level left
Bos taurus [15] = organism: Bos taurus; assay: Displacement of [3H]colchicine from bovine tubulin at inhibitor to colchicine ratio of 1:1; set-up: scale not given: the % may be the effect or the level left

MIC (Streptococcus pneumoniae [2]): 50 µg
IC50 [3]: > 40 µM
Compound: COc1ccc([C@@H](O)[C@H](O)c2cc(OC)c(OC)c(OC)c2)cc1O
EC50 (P388): 19 µg/mL (≈ 54.2 µM)
GI50 (FaDu): 2.1 µg/mL (≈ 5.99 µM)

IC50 [3]: 20 µM
Compound: COc1ccc([C@@H](O)[C@H](O)c2cc(OC)c(OC)c(OC)c2)c(O)c1O
Activity (Neisseria gonorrhoeae [4]): inactive
EC50 (P388): 3.9 µg/mL (≈ 10.6 µM)
Activity (Staphylococcus aureus [5]): inactive
GI50 (FaDu): 4.9 µg/mL (≈ 13.4 µM)
Activity (Enterococcus faecalis): inactive
Activity (Candida albicans [6]): inactive
Activity (Escherichia coli): inactive
Activity (Cryptococcus neoformans [7]): inactive
Activity (Micrococcus luteus): inactive
Activity (Enterobacter cloacae): inactive
Activity [8]: inactive
Activity (Streptococcus pneumoniae [9]): inactive

MIC (Streptococcus pneumoniae [2]): 25 µg
IC50 [3]: 14 µM
Compound: COc1ccc([C@H](O)[C@@H](O)c2cc(OC)c(OC)c(OC)c2)cc1O
EC50 (P388): 2 µg/mL (≈ 5.71 µM)
GI50 (FaDu): 0.6 µg/mL (≈ 1.71 µM)

IC50 [3]: 10 µM
MIC (Neisseria gonorrhoeae [1]): 25 µg
Compound: COc1ccc([C@H](O)[C@@H](O)c2cc(OC)c(OC)c(OC)c2)c(O)c1O
EC50 (P388): 2.9 µg/mL (≈ 7.92 µM)
GI50 (FaDu): > 10 µg/mL

MIC (Neisseria gonorrhoeae [1]): 12.5 µg
Compound: COc1ccc(CCc2cc(OC)c(OC)c(OC)c2)c(O)c1O
EC50 (P388): 1.7 µg/mL (≈ 5.08 µM)

Activity (Bos taurus [14]): 89%
Activity (Bos taurus [15]): 99.6%
IC50 [3]: 1.1 µM
MIC (Neisseria gonorrhoeae [1]): 25 µg
MIC (Staphylococcus aureus [13]): 50 µg
Compound: COc1ccc(/C=C\c2cc(OC)c(OC)c(OC)c2)c(O)c1O [COMBRETASTATIN A-1]
EC50 (P388): 0.2 µg/mL (≈ 0.602 µM)
GI50 (FaDu): 0.23 µg/mL (≈ 0.692 µM)

Continued, compound first:

Compound: COc1ccc(/C=C\c2cc(OC)c(OC)c(OC)c2)cc1O [COMBRETASTATIN A4]
EC50 (P388): 0.0003 µg/mL (≈ 0.000948 µM)
GI50 (FaDu): 0.0007 µg/mL (≈ 0.00221 µM)
EC50 (L1210): 0.007 µM
MIC (Neisseria gonorrhoeae [1]): 25 µg

Compound: COc1ccc(/C=C/c2cc(OC)c(OC)c(OC)c2)c(O)c1O
MIC (Cryptococcus neoformans [10]): 50 µg
MIC (Streptococcus pneumoniae [2]): 50 µg
MIC (Neisseria gonorrhoeae [1]): 6.25 µg
MIC (Candida albicans [11]): 50 µg
MIC [12]: 50 µg
MIC (Staphylococcus aureus [13]): 50 µg

Compound: COc1ccc(/C=C/c2cc(OC)c(OC)c(OC)c2)cc1O
Activity (Neisseria gonorrhoeae [4]): inactive
Activity (Staphylococcus aureus [5]): inactive
Activity (Enterococcus faecalis): inactive
Activity (Candida albicans [6]): inactive
Activity (Escherichia coli): inactive
Activity (Cryptococcus neoformans [7]): inactive
Activity (Micrococcus luteus): inactive
Activity (Enterobacter cloacae): inactive
Activity [8]: inactive
Activity (Streptococcus pneumoniae [9]): inactive

Compound: COc1ccc(/C=C\c2cc(OC)c(OC)c(OC)c2)cc1OP(=O)([O-])[O-].[Na+].[Na+] [FOSBRETABULIN DISODIUM]
EC50 (P388): 0.0004 µg/mL
MIC (Neisseria gonorrhoeae [1]): 50 µg

Compound: COc1cc(CCc2ccc(OC)c(OP(=O)([O-])[O-])c2OP(=O)([O-])[O-])cc(OC)c1OC.[Na+].[Na+].[Na+].[Na+]
EC50 (P388): 0.3 µg/mL

Compound: COc1cc(/C=C\c2ccc(OC)c(OP(=O)([O-])[O-])c2OP(=O)([O-])[O-])cc(OC)c1OC.[Na+].[Na+].[Na+].[Na+]
EC50 (P388): < 0.01 µg/mL
